How the values were obtained:
[1] = system: HCV replicon RNA; test: Renilla luciferase HCV replicon assay; assay type: cell-based, Hepatitis C Virus; conditions: Huh7 2209-23 cells, three days
[2] = system: Renilla Luciferase HCV replicon cells (2209-23); test: WST-1 cytotoxicity assay; assay type: cell-based, human; conditions: 2209-23 cells, three days
Method: For the assay procedure, Renilla Luciferase HCV replicon cells (2209-23) that cultured in Dulbecco's MEM (GibcoBRL cat no. 31966-021) with 5% fetal calf serum (FCS, GibcoBRL cat. no. 10106-169) were plated onto a 96-well plate at 5000 cells per well, and incubated overnight. Twenty-four hours later, different dilutions of chemical compounds in the growth medium were added to the cells, which were then further incubated at 37° C. for three days. The assay was carried out in duplicate plates, one in opaque white and one in transparent, in order to measure the activity and cytotoxicity of a chemical compound in parallel ensuring the activity seen is not due to reduction on cell proliferation.
For the cytotoxicity assay, WST-1 reagent from Roche Diagnostic (cat no. 1644807) was used. Ten microlitre of WST-1 reagent was added to each well including wells that contain media alone as blanks. Cells were then incubated for 1 to 1.5 hours at 37° C., and the OD value was measured by a 96-well plate reader at 450 nm (reference filter at 650 nm). Again CC50, the concentration of the drug required for reducing cell proliferation by 50% in relation to the untreated cell control value, can be calculated from the plot of percentage reduction of the WST-1 value vs. drug concentration.

| SMILES | IC50 (μM), given as % at a concentration ([1]; at 20 μM) | CC50(μM) WST-1, given as % at a concentration ([2]; at 20 μM) | IC50 ([1]; Hepatitis C virus, Huh-7, 72 h, concentration reducing replicon level by 50% vs untreated control) | CC50(μM) WST-1, given as % at a concentration ([2]; at 100 μM) |
| --- | --- | --- | --- | --- |
| C#C[C@]1(CO)O[C@@H](n2ccc(N)nc2=O)[C@H](O)[C@@H]1O.Cl [compound 3, 4′-C-Ethynylcytidine hydrochloride (1:1)] | 3% (20 μM) | 0% (20 μM) | – | – |
| [N-]=[N+]=N[C@]1(CO)O[C@@H](n2ccc(N)nc2=O)[C@H](O)[C@@H]1O [compound 1, 4′-C-Azidocytidine] | – | – | 1.2 µM | 0% (100 μM) |
